Results as given in patent US20110245105A1, “Methods and Kits for Direct Detection and Susceptibility Profiling of Beta-Lactam Resistant Bacteria” (YISSUM RESEARCH DEVELOPMENT COMPANY OF THE HEBREW …, priority 2008, published 2011).

Columns and labels:
[1] = test system: K. pneumoniae; assay: conventional lab procedures [CLP], resistance of bacterial isolates; assay type: cell-based; details: 1 sample (r12)
From the text: (§1) The same specimens were examined using conventional lab procedures [CLP] that determined the identity of the bacterial isolates and their resistance to the above beta-lactams.

[2] = test system: K. oxytoca; assay: as above; assay type: cell-based; details: 1 sample (r15)
From the text: as §1

[3] = test system: E. coli; assay: ART strip (Antibiotics Resistance Test), iodometric detection of beta-lactam hydrolysis by un-cultured urine sample pellets; assay type: cell-based
Protocol: (§2) Filter paper (Whatman no. 3) strips impregnated with 50 mM potassium iodide and 10 mM iodine in 0.75% aqueous starch solution were divided into 6 test areas. Appropriate antibiotic substrates were prepared at a final concentration of 20 mg/mL. Each test area was impregnated with 30 μL of the appropriate solution. The strips were then dried in a lyophilizer and stored with a desiccant at 4° C.
(§3) One mL urine samples were spun 2 minutes at 3000 RPM in room temperature. Supernatants were removed and aliquots of the resulting pellets were streaked on standard slides.
(§4) The product of the enzymatic degradation of a beta-lactam antibiotic removes the iodine from the ART strip and causes local decolorization in that strip. Typically, a detection kit consists of two slides, as illustrated in FIG. 2. The bottom slide is streaked with the sample to be tested. The top slide (lid) carries the ART strip which is activated when each test area on the strip receives 25 μL of the activator solution consisting of 40 mg gelatin in 100 mL phosphate buffer pH 6.5. The test starts when the top slide carrying the freshly activated ART strip contacts the bottom slide carrying the sample. It may be carried out at ambient temperatures but will be accelerated by warming-up to 41° C. […] Result is confirmed if no decolorization took place in the absence of the bacteria (the background of that test area) or in the absence of the antibiotic (as in Test Area 2 in FIG. 1).
(§5) One mL urine sample pellets were collected as described in Example 1 and each streaked on a slide. The strip of the invention (termed ART for Antibiotics Resistance Test) was used to test for beta-lactamase and its ability to degrade Ceftazidime [Caz], Ceftriaxone [Cro], Cefuroxime [Cxm] and Ampicillin [Amp]. The strip, containing iodine and starch and divided to areas containing each of the abovementioned antibiotics, and attached to a plain slide, was activated as shown above, and placed on the streaked slide. After 5-15 minutes at 33° C.-38° C. the slide was scanned and recorded.

[4] = test system: K. pneumoniae; assay: ART strip test on urine sample pellets; assay type: cell-based
Protocol: as §2, §3, §4, §5

[5] = test system: Staphylococcus sp.; assay: ART strip test on urine sample pellets; assay type: cell-based
Protocol: as §2, §3, §4, §5

[6] = test system: Morg. morganii; assay: ART strip test on urine sample pellets; assay type: cell-based
Protocol: as §2, §3, §4, §5

[7] = test system: K. oxytoca; assay: ART strip test on urine sample pellets; assay type: cell-based
Protocol: as §2, §3, §4, §5

[8] = test system: Acinetobacter sp.; assay: ART strip test on urine sample pellets; assay type: cell-based; details: 1 sample (r29)
Protocol: as §2, §3, §4, §5

[9] = test system: E. faecalis; assay: ART strip test on urine sample pellets; assay type: cell-based; details: 4 samples (r27)
Protocol: as §2, §3, §4, §5

[10] = test system: Str. agalactiae; assay: ART strip test on urine sample pellets; assay type: cell-based; details: 3 samples (r34)
Protocol: as §2, §3, §4, §5

[11] = test system: Citr. koseri; assay: ART strip test on urine sample pellets; assay type: cell-based; details: 2 samples (r25)
Protocol: as §2, §3, §4, §5

[12] = test system: Prot. mirabilis; assay: ART strip test on urine sample pellets; assay type: cell-based
Protocol: as §2, §3, §4, §5

[13] = test system: Prot. mirabilis; assay: conventional lab procedures [CLP], resistance of bacterial isolates; assay type: cell-based; details: 1 sample (r18)
From the text: as §1

[14] = test system: K. pneumoniae; assay: modular antibiotic resistance detection kit on urine sample pellets; assay type: cell-based
Protocol: (§6) A modular antibiotic resistance detection kit offers more flexibility in testing different resistance profiles. In the modular detection kit exemplified here, the ART strip is replaced by filter paper segments glued to a slide, each segment impregnated with a single antibiotic.
(§7) Specifically, pathogen samples were tested using filter papers impregnated with the following beta-lactam antibiotics: ampicillin [Amp], augmentin (a combination of amoxicillin and clavulanic acid) [AMC], clavulanic acid (Reduced Resistance test) [RR], ceftazidime [Caz] and either imipenem or meropenem [CPM]. The impregnation details of the fragments were as in the previous Examples.
(§8) Filter paper (Whatman no. 3] strips impregnated with Assay Reagent solution were used as “indicator strips”. An indicator strip was attached to the plain top slide as shown in FIG. 2. Aliquots of the pellets of the urine samples tested were placed on each of the segments. The test was started by placing the activated indicator-strip-slide, on the modular antibiotic slide. The scan results obtained after 5-10 min at 38° C. are illustrated schematically in FIG. 2 where all segments, except for the negative (no antibiotic) control, show decolorization indicating resistance to each antibiotic in that array.
(§9) Samples resistant to ceftazidime but affected by clavulanic acid were assumed to contain extended spectrum beta lactamases (ESBLs). The ‘Confirmed’ detections column summarizes the number of CLP-validated results out of the total findings recorded.

[15] = test system: Proteus mirabilis; assay: as above; assay type: cell-based
Protocol: as §6, §7, §8, §9

[16] = test system: E. coli; assay: as above; assay type: cell-based
Protocol: as §6, §7, §8, §9

[17] = test system: Citrobacter freundii; assay: as above; assay type: cell-based; on resistance found with modular kit: key: R = resistant; S = sensitive
Protocol: as §6, §7, §8, §9

[18] = test system: carbapenemase; assay: detection of carbapenemase activity in clinical urine samples; assay type: biochemical; details: urine pellet streak; 12 min at room temperature; 5.0-30 mg/mL substrate
Protocol: Activated ART strip impregnated with 30 μL of an aqueous solution of 30, […], 20, 15, 10 and 5.0 mg/mL imipenem (Ipm) or ertapenem (Etp) in positions 1, 2, 3, 4 and 5 on the strip, respectively, was placed in contact with a slide streaked with a urine pellet sample (Ipm+Sam. or Etp+Sam.), or an unstreaked slide (Ipm Cont. or Etp Cont.), […] reaction to appear. Abbreviations: Cont. (control), Etp. (ertapenem), Ipm. (imipenem), sam. (sample).
The product of the enzymatic degradation of a beta-lactam antibiotic removes the iodine from the ART strip and causes local decolorization in that strip. Typically, a detection kit consists of two slides, as illustrated in FIG. 2. The bottom slide is streaked with the sample to be tested. The top slide (lid) carries the ART strip which is activated when each test area on the strip receives 25 μL of the activator solution consisting of 40 mg gelatin in 100 mL phosphate buffer pH 6.5. The test starts when the top slide carrying the freshly activated ART strip contacts the bottom slide carrying the sample. […]
Urine samples were concentrated by a two minute centrifugation step at 3000 RPM and the resulting pellet was streaked on standard slides. […] As shown by the figure, the carbapenemase activity is easily detected using this method, even in samples containing low concentrations of antibiotic substrates.

[19] = test system: carbapenem-resistant Enterobacteriaceae; assay: modular kit for detection of CRE in urine sample; assay type: cell-based; details: CRE-containing urine sample; as part of augmentin
Protocol: The kit constructed as a twin-slide [as illustrated by FIG. 1] carries an “OCTET” strip impregnated [as in Example 1] with an array of eight beta-lactam antibiotics and 1 non-beta-lactam control [S].
To illustrate the life-saving potential of the proposed technology which eliminates delays in diagnosis of carbapenem-resistant members of the Enterobacteriaceae family (CRE), a CRE sample was analyzed using the invention's modular kit, containing ampicillin, ceftazidime, augmentin, cefotaxime, imipenem, cefuroxime, meropenem and ceftriaxone as beta-lactamase substrates and a non-beta-lactam antibiotic, served as a negative control.
Filter paper segments were glued to a slide, each segment impregnated with a single antibiotic of the abovementioned antibiotics and streaked with carbapenem-resistant Enterobacteriaceae-containing urine sample pellets, prepared as described in Examples 1 to 3. The slide was contacted with indicator strips attached to a slide.

[20] = 28 samples (r6), 5-15 minutes at 33° C.-38° C.

Structure (SMILES) | resistance profile predicted by ART ([3]; 3 samples (r8), MDR) | resistance profile predicted by ART ([3]; 12 samples (r7)) | resistance profile predicted by ART [3, 20] | resistance profile predicted by ART ([4]; 1 sample (r12)) | resistance profile predicted by ART ([4]; 8 samples (r11)) | resistance profile predicted by ART ([4]; 11 samples (r10), MDR) | resistance profile predicted by ART ([5]; 1 sample (r31)) | resistance profile predicted by ART ([5]; 1 sample (r32)) | resistance profile predicted by ART ([6]; 1 sample (r22)) | resistance profile predicted by ART ([6]; 1 sample (r23)) | resistance profile predicted by ART ([7]; 1 sample (r15)) | resistance profile predicted by ART ([7]; 3 samples (r14)) | resistance profile predicted by ART [8] | resistance profile predicted by ART [9] | resistance profile predicted by ART [10] | resistance profile predicted by ART [11] | resistance profile predicted by ART ([12]; 1 sample (r18)) | resistance profile predicted by ART ([12]; 1 sample (r19)) | resistance profile predicted by ART ([12]; 1 sample (r20)) | resistance profile predicted by ART ([12]; 6 samples (r17)) | also measured
CO/N=C(\C(=O)N[C@@H]1C(=O)N2C(C(=O)O)=C(CSc3nc(=O)c(=O)[nH]n3C)CS[C@H]12)c1csc(N)n1 [Cro, Ceftriaxone] | R | S | S | S | S | R | S | S | S | R | S | S | S | S[nd] | S[nd] | S | S | R | S | S | CLP result differing from ART (in brackets) [1]: R; CLP result differing from ART (in brackets) [2]: R
CC1(C)S[C@@H]2[C@H](NC(=O)[C@H](N)c3ccccc3)C(=O)N2[C@H]1C(=O)O [Amp, Ampicillin] | R | S | R | R | R | R | R | S | R | R | R | R | S | S | S | R | R | R | R | R | CLP result differing from ART (in brackets) [13]: S; resistance found with modular kit ([14]; K. pneumoniae (5 samples), profile r17, ESBL Pos): R; resistance found with modular kit ([14]; K. pneumoniae, profile r18, ESBL Pos): R; resistance found with modular kit ([14]; K. pneumoniae, profile r19): R; resistance found with modular kit ([14]; K. pneumoniae, profile r20, ESBL Pos): R; resistance found with modular kit ([14]; K. pneumoniae, profile r21, ESBL Neg): R; resistance found with modular kit ([15]; Proteus mirabilis (3 samples), profile r25, ESBL Pos): R; resistance found with modular kit ([15]; Proteus mirabilis, profile r26, ESBL Pos): R; resistance found with modular kit ([15]; Proteus mirabilis, profile r27, ESBL Neg): R; resistance found with modular kit ([16]; E. coli (16 samples), profile r6, ESBL Neg, 5-10 min at 38° C.): S; resistance found with modular kit ([16]; E. coli, profile r7): S; resistance found with modular kit ([16]; E. coli, profile r8): R; resistance found with modular kit ([16]; E. coli, profile r9, ESBL Neg): R; resistance found with modular kit ([16]; E. coli, profile r10, ESBL Neg): R; resistance found with modular kit ([16]; E. coli, profile r11, ESBL Neg): R; resistance found with modular kit ([16]; E. coli, profile r12, ESBL Neg): R; resistance found with modular kit ([16]; E. coli, profile r13): R; resistance found with modular kit ([16]; E. coli, profile r14, ESBL Pos): R; resistance found with modular kit ([16]; E. coli, profile r15, ESBL Pos): R; resistance found with modular kit ([17]; profile r23, ESBL Pos): R
C[C@@H](O)[C@H]1C(=O)N2C(C(=O)O)=C(S[C@@H]3CN[C@H](C(=O)Nc4cccc(C(=O)O)c4)C3)[C@H](C)[C@H]12 [Ert, ertapenem] |  |  |  |  |  |  |  |  |  |  |  |  |  |  |  |  |  |  |  |  | hydrolysis by carbapenemase in the sample (decolorization of strip) [18]: hydrolyzing
O=C(O)[C@H]1/C(=C/CO)O[C@@H]2CC(=O)N21 [RR, clavulanic acid] |  |  |  |  |  |  |  |  |  |  |  |  |  |  |  |  |  |  |  |  | protection from hydrolysis [19]: no protection from hydrolysis; Effect of clavulanic acid (Reduced Resistance) ([14]; K. pneumoniae, profile r20): N; Effect of clavulanic acid (Reduced Resistance) ([16]; E. coli, profile r12): N; Effect of clavulanic acid (Reduced Resistance) ([17]; profile r23): N
CO/N=C(\C(=O)N[C@@H]1C(=O)N2C(C(=O)O)=C(COC(N)=O)CS[C@H]12)c1ccco1 [Cxm, Cefuroxime] | R | S | S | R | S | R | S | S | S | R | R | S | S | S[nd] | S[nd] | S | R | R | R | S | 
